# Source: publication PMC7313537 (PLoS ONE, 2020)
# Tests used:
# Experiment in all cases: Broader kinase panel (PerkinElmer)
# Format in all cases: biochemical
# Settings in all cases: 100 nM; read-out: Average Percent Inhibition
# AKT2 = target: T1, AKT2 (Homo sapiens, UniProt P31751)
# T1 construct: purchased In-house HTRF panel (56 kinases) and PerkinElmer (161-kinase panel)
# From the text: (§1) […]. […] […].
# ALK = target: T2, ALK (Homo sapiens, UniProt Q9UM73)
# T2 construct: purchased In-house HTRF panel (56 kinases) and PerkinElmer (161-kinase panel)
# From the text: as §1
# [1] = target: T3, AMPK-alpha2/beta1/gamma 1 (Homo sapiens, UniProt P54646)
# T3 construct: purchased In-house HTRF panel (56 kinases) and PerkinElmer (161-kinase panel)
# T3 sequence (P54646 whole entry): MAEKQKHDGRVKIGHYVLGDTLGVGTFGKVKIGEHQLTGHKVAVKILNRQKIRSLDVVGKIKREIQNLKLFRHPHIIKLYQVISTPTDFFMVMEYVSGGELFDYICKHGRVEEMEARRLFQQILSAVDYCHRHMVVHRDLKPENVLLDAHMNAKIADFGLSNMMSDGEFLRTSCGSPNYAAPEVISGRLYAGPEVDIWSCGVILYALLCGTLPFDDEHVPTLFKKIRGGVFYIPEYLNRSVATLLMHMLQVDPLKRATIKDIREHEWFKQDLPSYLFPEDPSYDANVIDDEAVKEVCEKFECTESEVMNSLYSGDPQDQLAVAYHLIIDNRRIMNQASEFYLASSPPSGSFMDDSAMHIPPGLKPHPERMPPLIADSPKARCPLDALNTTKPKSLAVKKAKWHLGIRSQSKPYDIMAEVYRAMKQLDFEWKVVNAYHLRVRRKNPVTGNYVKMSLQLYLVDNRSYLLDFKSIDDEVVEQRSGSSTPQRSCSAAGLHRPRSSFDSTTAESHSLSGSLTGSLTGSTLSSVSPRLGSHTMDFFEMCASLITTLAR
# T3 sequence (Q9Y478 whole entry partner): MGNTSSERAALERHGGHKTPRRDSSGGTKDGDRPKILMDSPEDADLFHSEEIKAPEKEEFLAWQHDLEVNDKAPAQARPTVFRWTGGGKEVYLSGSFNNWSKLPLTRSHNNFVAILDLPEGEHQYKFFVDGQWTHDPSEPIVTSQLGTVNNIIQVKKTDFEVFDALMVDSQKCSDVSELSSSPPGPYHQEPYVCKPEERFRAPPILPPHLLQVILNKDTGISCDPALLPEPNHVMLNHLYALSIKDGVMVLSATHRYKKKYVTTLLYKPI
# T3 sequence (P54619 whole entry partner): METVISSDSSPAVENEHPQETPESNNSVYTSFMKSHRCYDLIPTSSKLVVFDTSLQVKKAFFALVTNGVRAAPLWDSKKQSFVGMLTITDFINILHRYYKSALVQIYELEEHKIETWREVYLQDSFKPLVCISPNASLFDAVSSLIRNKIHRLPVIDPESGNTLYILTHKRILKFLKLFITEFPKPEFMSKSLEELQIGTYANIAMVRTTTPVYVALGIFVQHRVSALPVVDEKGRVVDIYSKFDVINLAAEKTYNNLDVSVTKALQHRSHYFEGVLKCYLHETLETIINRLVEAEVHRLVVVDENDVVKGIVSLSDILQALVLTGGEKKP
# From the text: as §1
# BRSK1 = target: T4, BRSK1 (Homo sapiens, UniProt Q8TDC3)
# T4 construct: purchased In-house HTRF panel (56 kinases) and PerkinElmer (161-kinase panel)
# From the text: as §1
# BTK = BTK (Homo sapiens, UniProt Q06187)
# From the text: as §1
# CHK2 = target: T5, CHK2 (Homo sapiens, UniProt O96017)
# T5 construct: purchased In-house HTRF panel (56 kinases) and PerkinElmer (161-kinase panel)
# From the text: as §1
# CLK2 = target: T6, CLK2 (Homo sapiens, UniProt P49760)
# T6 construct: purchased In-house HTRF panel (56 kinases) and PerkinElmer (161-kinase panel)
# From the text: as §1
# Ca MK1a = target: T7, Ca MK1a (Homo sapiens, UniProt Q14012)
# T7 construct: purchased In-house HTRF panel (56 kinases) and PerkinElmer (161-kinase panel)
# From the text: as §1
# CamK1d = target: T8, CamK1d (Homo sapiens, UniProt Q8IU85)
# T8 construct: purchased In-house HTRF panel (56 kinases) and PerkinElmer (161-kinase panel)
# From the text: as §1
# DYRK1B = target: T9, DYRK1B (Homo sapiens, UniProt Q9Y463)
# T9 construct: purchased In-house HTRF panel (56 kinases) and PerkinElmer (161-kinase panel)
# From the text: as §1
# DYRK4 = target: T10, DYRK4 (Homo sapiens, UniProt Q9NR20)
# T10 construct: purchased In-house HTRF panel (56 kinases) and PerkinElmer (161-kinase panel)
# From the text: as §1
# EGFR (ErbB1) T790M L858R = target: T11, EGFR (ErbB1) T790M L858R (Homo sapiens, UniProt P00533, L858R/T790M)
# T11 construct: purchased In-house HTRF panel (56 kinases) and PerkinElmer (161-kinase panel)
# From the text: as §1
# EPHA4 = target: T12, EPHA4 (Homo sapiens, UniProt P54764)
# T12 construct: purchased In-house HTRF panel (56 kinases) and PerkinElmer (161-kinase panel)
# From the text: as §1
# FLT1 = target: T13, FLT1 (Homo sapiens, UniProt P17948)
# T13 construct: purchased In-house HTRF panel (56 kinases) and PerkinElmer (161-kinase panel)
# From the text: as §1
# FLT4 = target: T14, FLT4 (Homo sapiens, UniProt P35916)
# T14 construct: purchased In-house HTRF panel (56 kinases) and PerkinElmer (161-kinase panel)
# From the text: as §1
# FMS = target: T15, FMS (Homo sapiens, UniProt P07333)
# T15 construct: purchased In-house HTRF panel (56 kinases) and PerkinElmer (161-kinase panel)
# From the text: as §1
# FRK = target: T16, FRK (Homo sapiens, UniProt P42685)
# T16 construct: purchased In-house HTRF panel (56 kinases) and PerkinElmer (161-kinase panel)
# T16 sequence (P42685 whole entry): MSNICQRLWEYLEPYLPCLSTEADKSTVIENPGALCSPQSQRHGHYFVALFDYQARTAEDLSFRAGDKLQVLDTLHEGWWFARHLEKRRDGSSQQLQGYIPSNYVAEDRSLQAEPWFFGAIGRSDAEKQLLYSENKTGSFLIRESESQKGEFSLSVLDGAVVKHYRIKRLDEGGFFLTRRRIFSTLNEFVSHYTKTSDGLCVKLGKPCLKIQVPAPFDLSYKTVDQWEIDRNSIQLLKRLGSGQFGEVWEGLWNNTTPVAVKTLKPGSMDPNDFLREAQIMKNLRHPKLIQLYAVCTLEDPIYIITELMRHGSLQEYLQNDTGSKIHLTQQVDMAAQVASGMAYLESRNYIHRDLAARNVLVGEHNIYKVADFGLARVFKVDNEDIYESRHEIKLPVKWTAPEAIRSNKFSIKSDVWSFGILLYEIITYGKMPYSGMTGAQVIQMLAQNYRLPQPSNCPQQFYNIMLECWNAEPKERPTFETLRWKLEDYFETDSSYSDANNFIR
# From the text: as §1
# FYN = target: T17, FYN (Homo sapiens, UniProt P06241)
# T17 construct: purchased In-house HTRF panel (56 kinases) and PerkinElmer (161-kinase panel)
# From the text: as §1
# Flt3(D835Y) = target: T18, Flt3(D835Y) (Homo sapiens, UniProt P36888, D835Y)
# T18 construct: purchased In-house HTRF panel (56 kinases) and PerkinElmer (161-kinase panel)
# From the text: as §1
# GCK = target: T19, GCK (Homo sapiens, UniProt Q12851)
# T19 construct: purchased In-house HTRF panel (56 kinases) and PerkinElmer (161-kinase panel)
# From the text: as §1
# GSK3B = target: T20, GSK3B (Homo sapiens, UniProt P49841)
# T20 construct: purchased In-house HTRF panel (56 kinases) and PerkinElmer (161-kinase panel)
# From the text: as §1
# HGK = target: T21, HGK (Homo sapiens, UniProt O95819)
# T21 construct: purchased In-house HTRF panel (56 kinases) and PerkinElmer (161-kinase panel)
# From the text: as §1
# HIPK1 = target: T22, HIPK1 (Homo sapiens, UniProt Q86Z02)
# T22 construct: purchased In-house HTRF panel (56 kinases) and PerkinElmer (161-kinase panel)
# T22 sequence (Q86Z02 whole entry): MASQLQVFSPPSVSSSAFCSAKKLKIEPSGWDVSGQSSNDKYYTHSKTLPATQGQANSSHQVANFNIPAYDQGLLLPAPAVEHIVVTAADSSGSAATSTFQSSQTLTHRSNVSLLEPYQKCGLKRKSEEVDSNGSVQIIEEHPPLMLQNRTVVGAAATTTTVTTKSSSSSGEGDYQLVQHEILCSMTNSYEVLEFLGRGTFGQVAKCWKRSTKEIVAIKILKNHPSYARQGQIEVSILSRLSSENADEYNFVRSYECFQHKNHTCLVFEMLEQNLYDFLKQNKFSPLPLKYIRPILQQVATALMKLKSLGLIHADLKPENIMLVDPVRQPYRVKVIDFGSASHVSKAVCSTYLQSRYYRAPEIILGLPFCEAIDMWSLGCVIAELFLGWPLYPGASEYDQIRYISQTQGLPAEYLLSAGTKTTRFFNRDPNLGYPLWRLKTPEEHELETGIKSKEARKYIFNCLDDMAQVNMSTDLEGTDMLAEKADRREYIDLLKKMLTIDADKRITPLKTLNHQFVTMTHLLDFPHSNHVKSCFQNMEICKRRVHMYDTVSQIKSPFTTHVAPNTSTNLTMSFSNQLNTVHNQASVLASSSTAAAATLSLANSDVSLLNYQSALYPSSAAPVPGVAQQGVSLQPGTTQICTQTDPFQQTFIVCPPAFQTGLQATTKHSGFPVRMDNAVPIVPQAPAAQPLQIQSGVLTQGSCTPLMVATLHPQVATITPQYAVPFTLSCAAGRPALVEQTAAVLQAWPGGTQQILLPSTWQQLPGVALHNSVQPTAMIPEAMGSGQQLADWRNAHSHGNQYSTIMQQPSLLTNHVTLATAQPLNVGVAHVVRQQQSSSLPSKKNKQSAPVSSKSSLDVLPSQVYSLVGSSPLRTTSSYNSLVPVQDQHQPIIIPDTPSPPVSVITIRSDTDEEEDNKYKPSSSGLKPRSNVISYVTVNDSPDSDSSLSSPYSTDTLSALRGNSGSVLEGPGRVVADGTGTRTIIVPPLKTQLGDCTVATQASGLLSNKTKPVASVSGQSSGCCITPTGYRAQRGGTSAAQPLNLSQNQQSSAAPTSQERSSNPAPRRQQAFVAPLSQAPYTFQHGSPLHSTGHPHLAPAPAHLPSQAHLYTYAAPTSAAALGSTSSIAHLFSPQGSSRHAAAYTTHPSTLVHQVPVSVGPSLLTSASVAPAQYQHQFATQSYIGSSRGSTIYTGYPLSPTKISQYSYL
# From the text: as §1
# IKK-beta = target: T23, IKK-beta (Homo sapiens, UniProt O14920)
# T23 construct: purchased In-house HTRF panel (56 kinases) and PerkinElmer (161-kinase panel)
# T23 sequence (O14920 whole entry): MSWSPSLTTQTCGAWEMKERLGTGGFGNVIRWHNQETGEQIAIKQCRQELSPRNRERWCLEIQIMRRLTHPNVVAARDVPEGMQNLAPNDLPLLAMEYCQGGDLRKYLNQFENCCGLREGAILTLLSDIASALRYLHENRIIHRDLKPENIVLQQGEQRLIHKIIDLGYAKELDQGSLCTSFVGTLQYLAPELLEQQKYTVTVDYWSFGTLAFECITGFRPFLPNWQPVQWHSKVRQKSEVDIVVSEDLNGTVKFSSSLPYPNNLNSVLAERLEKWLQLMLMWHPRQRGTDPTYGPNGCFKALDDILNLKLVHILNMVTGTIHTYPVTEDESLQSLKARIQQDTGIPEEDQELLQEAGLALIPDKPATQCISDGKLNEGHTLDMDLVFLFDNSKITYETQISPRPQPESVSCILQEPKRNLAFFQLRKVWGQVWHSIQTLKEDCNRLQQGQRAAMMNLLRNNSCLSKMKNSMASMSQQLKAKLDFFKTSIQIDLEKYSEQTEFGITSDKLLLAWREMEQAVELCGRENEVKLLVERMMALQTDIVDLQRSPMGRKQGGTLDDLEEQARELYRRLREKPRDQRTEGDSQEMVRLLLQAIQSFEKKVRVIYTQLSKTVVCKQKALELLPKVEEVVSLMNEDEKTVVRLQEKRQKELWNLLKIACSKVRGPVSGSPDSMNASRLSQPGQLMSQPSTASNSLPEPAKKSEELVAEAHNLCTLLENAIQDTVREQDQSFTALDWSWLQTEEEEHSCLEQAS
# From the text: as §1
# KIT = target: T24, KIT (Homo sapiens, UniProt P10721)
# T24 construct: purchased In-house HTRF panel (56 kinases) and PerkinElmer (161-kinase panel)
# From the text: as §1
# LTK = target: T25, LTK (Homo sapiens, UniProt P29376)
# T25 construct: purchased In-house HTRF panel (56 kinases) and PerkinElmer (161-kinase panel)
# From the text: as §1
# MST1 = target: T26, MST1 (Homo sapiens, UniProt Q13043)
# T26 construct: purchased In-house HTRF panel (56 kinases) and PerkinElmer (161-kinase panel)
# From the text: as §1
# PAK2 = target: T27, PAK2 (Homo sapiens, UniProt Q13177)
# T27 construct: purchased In-house HTRF panel (56 kinases) and PerkinElmer (161-kinase panel)
# From the text: as §1
# PAK4 = PAK4 (Homo sapiens, UniProt O96013)
# From the text: as §1
# PHKG2 = target: T28, PHKG2 (Homo sapiens, UniProt P15735)
# T28 construct: purchased In-house HTRF panel (56 kinases) and PerkinElmer (161-kinase panel)
# From the text: as §1
# PIM1 = target: T29, PIM1 (Homo sapiens, UniProt P11309)
# T29 construct: purchased In-house HTRF panel (56 kinases) and PerkinElmer (161-kinase panel)
# From the text: as §1
# PKC-alpha = target: T30, PKC-alpha (Homo sapiens, UniProt P17252)
# T30 construct: purchased In-house HTRF panel (56 kinases) and PerkinElmer (161-kinase panel)
# From the text: as §1
# PKC-eta = target: T31, PKC-eta (Homo sapiens, UniProt P24723)
# T31 construct: purchased In-house HTRF panel (56 kinases) and PerkinElmer (161-kinase panel)
# From the text: as §1
# PKCz = target: T32, PKCz (Homo sapiens, UniProt Q05513)
# T32 construct: purchased In-house HTRF panel (56 kinases) and PerkinElmer (161-kinase panel)
# T32 sequence (Q05513 whole entry): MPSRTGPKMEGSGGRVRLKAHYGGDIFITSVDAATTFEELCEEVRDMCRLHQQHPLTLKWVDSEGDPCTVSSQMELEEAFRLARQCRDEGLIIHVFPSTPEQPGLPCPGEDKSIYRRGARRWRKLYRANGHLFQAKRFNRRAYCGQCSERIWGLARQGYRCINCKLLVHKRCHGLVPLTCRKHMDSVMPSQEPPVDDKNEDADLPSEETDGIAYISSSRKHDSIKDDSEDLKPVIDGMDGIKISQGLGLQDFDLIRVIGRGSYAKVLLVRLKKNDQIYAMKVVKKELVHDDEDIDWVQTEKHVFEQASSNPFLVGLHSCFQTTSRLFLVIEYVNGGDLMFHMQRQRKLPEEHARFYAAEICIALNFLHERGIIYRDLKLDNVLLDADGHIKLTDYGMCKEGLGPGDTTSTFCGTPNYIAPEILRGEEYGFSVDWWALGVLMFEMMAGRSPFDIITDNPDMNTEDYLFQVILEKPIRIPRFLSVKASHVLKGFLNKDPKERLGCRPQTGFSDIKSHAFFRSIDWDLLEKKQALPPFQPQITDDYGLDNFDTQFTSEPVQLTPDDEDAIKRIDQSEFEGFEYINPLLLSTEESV
# From the text: as §1
# PKD2 = target: T33, PKD2 (Homo sapiens, UniProt Q9BZL6)
# T33 construct: purchased In-house HTRF panel (56 kinases) and PerkinElmer (161-kinase panel)
# From the text: as §1
# PRKCI (PKC-iota) = target: T34, PRKCI (PKC-iota) (Homo sapiens, UniProt P41743)
# T34 construct: purchased In-house HTRF panel (56 kinases) and PerkinElmer (161-kinase panel)
# From the text: as §1
# ROS (ROS1) = target: T35, ROS (ROS1) (Homo sapiens, UniProt P08922)
# T35 construct: purchased In-house HTRF panel (56 kinases) and PerkinElmer (161-kinase panel)
# From the text: as §1
# RSK1 = target: T36, RSK1 (Homo sapiens, UniProt Q15418)
# T36 construct: purchased In-house HTRF panel (56 kinases) and PerkinElmer (161-kinase panel)
# T36 sequence (Q15418 whole entry): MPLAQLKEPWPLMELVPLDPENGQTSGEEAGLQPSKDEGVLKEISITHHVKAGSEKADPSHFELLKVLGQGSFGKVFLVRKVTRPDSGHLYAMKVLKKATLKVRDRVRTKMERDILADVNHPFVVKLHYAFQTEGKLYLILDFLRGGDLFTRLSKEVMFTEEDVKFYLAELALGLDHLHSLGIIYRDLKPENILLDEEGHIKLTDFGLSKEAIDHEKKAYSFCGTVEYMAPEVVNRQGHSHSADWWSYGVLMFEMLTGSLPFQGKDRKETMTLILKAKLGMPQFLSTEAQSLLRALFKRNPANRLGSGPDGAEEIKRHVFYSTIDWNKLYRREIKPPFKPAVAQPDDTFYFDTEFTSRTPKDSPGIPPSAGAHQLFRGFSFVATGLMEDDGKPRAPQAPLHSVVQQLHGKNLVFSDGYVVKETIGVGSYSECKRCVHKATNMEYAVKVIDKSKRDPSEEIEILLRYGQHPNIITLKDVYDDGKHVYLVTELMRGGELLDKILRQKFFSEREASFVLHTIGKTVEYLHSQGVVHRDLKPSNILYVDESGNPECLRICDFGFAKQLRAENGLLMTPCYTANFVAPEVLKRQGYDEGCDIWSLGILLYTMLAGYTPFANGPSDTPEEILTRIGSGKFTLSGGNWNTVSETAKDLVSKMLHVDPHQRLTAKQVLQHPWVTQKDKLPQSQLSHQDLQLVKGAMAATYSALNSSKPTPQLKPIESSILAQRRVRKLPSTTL
# From the text: as §1
# SGK3 = SGK3 (Homo sapiens, UniProt Q96BR1)
# From the text: as §1
# SRM (SRMS) = target: T37, SRM (SRMS) (Homo sapiens, UniProt Q9H3Y6)
# T37 construct: purchased In-house HTRF panel (56 kinases) and PerkinElmer (161-kinase panel)
# From the text: as §1
# TRKC (NTRK3) = target: T38, TRKC (NTRK3) (Homo sapiens, UniProt Q16288)
# T38 construct: purchased In-house HTRF panel (56 kinases) and PerkinElmer (161-kinase panel)
# From the text: as §1
# TYRO3 = target: T39, TYRO3 (Homo sapiens, UniProt Q06418)
# T39 construct: purchased In-house HTRF panel (56 kinases) and PerkinElmer (161-kinase panel)
# From the text: as §1
# c-TAK1 = target: T40, c-TAK1 (Homo sapiens, UniProt P27448)
# T40 construct: purchased In-house HTRF panel (56 kinases) and PerkinElmer (161-kinase panel)
# From the text: as §1
smiles,measurement,setting,value
"CCN1C(=O)N(c2c(F)c(OC)cc(OC)c2F)Cc2cnc3[nH]c(CN4CCOCC4)cc3c21 [INCB054828, pemigatinib]",inhibition at 0.1 µM,AKT2,2%
same,inhibition at 0.1 µM,ALK,-1%
same,inhibition at 0.1 µM,[1],7%
same,inhibition at 0.1 µM,BRSK1,-4%
same,inhibition at 0.1 µM,BTK,-3%
same,inhibition at 0.1 µM,CHK2,4%
same,inhibition at 0.1 µM,CLK2,-3%
same,inhibition at 0.1 µM,Ca MK1a,3%
same,inhibition at 0.1 µM,CamK1d,14%
same,inhibition at 0.1 µM,DYRK1B,7%
same,inhibition at 0.1 µM,DYRK4,-4%
same,inhibition at 0.1 µM,EGFR (ErbB1) T790M L858R,5%
same,inhibition at 0.1 µM,EPHA4,3%
same,inhibition at 0.1 µM,FLT1,13%
same,inhibition at 0.1 µM,FLT4,38%
same,inhibition at 0.1 µM,FMS,-10%
same,inhibition at 0.1 µM,FRK,0%
same,inhibition at 0.1 µM,FYN,-1%
same,inhibition at 0.1 µM,Flt3(D835Y),1%
same,inhibition at 0.1 µM,GCK,1%
same,inhibition at 0.1 µM,GSK3B,-1%
same,inhibition at 0.1 µM,HGK,-6%
same,inhibition at 0.1 µM,HIPK1,-1%
same,inhibition at 0.1 µM,IKK-beta,4%
same,inhibition at 0.1 µM,KIT,4%
same,inhibition at 0.1 µM,LTK,-17%
same,inhibition at 0.1 µM,MST1,-1%
same,inhibition at 0.1 µM,PAK2,0%
same,inhibition at 0.1 µM,PAK4,5%
same,inhibition at 0.1 µM,PHKG2,-1%
same,inhibition at 0.1 µM,PIM1,-6%
same,inhibition at 0.1 µM,PKC-alpha,16%
same,inhibition at 0.1 µM,PKC-eta,-4%
same,inhibition at 0.1 µM,PKCz,1%
same,inhibition at 0.1 µM,PKD2,-7%
same,inhibition at 0.1 µM,PRKCI (PKC-iota),3%
same,inhibition at 0.1 µM,ROS (ROS1),3%
same,inhibition at 0.1 µM,RSK1,-2%
same,inhibition at 0.1 µM,SGK3,13%
same,inhibition at 0.1 µM,SRM (SRMS),1%
same,inhibition at 0.1 µM,TRKC (NTRK3),3%
same,inhibition at 0.1 µM,TYRO3,1%
same,inhibition at 0.1 µM,c-TAK1,2%
